# Where two headings read alike, the source gives them in different places.
# Legend:
# [1] = test system: Mycobacterium smegmatis DSM 43465 (ATCC 607); assay: Microdilution broth, modified Microplate Alamar Blue Assay, whole cell growth inhibition; type: cell-based; details: Mycolicibacterium smegmatis, read-out: MIC Mycobacterium smegmatis
# Serratia marcescens = assay: Antibacterial microdilution broth method (EUCAST); type: cell-based; details: 48 h, standards, read-out: MIC against Serratia marcescens
# [2] = test system: Mycobacterium tuberculosis H37Ra ITM-M006710 (ATCC 9431); assay: Microdilution broth, modified Microplate Alamar Blue Assay, whole cell growth inhibition; type: cell-based; details: Mycobacterium tuberculosis, read-out: MIC Mtb H37Ra
# [3] = test system: Mycobacterium aurum DSM 43999 (ATCC 23366); assay: as above; type: cell-based; details: Mycolicibacterium aurum, read-out: MIC Mycobacterium aurum
# [4] = test system: M. avium ssp. avium CNCTC My 80/72 (ATCC 15769); assay: 96 well plate microdilution broth method with Alamar Blue; type: cell-based; details: Mycobacterium avium
# [5] = test system: M. kansasii CNCTC My 235/80 (ATCC 12478); assay: as above; type: cell-based; details: Mycobacterium kansasii
# [6] = type: physicochemical
# Protocol: As a complementary test, final compounds were tested for in vitro activity against selected fungal and bacterial pathogens of clinical importance. The microdilution broth method was performed according to The European Committee on Antimicrobial Susceptibility Testing (EUCAST) instructions with slight modifications. The minimum inhibitory concentration was expressed in µM. Not all compounds were evaluated due to the fact of a problem with solubility which occurred for 18 samples. […] See Supplementary Materials for the list of tested strains, methodology, and full results.
# HepG2 cells = assay: HepG2 cytotoxicity, CellTiter 96 (MTS) assay; type: cell-based, human; details: for IC50: Homo sapiens, read-out: HepG2 IC50; for SI, selectivity index: IC50 (HepG2)/MIC against Mtb H37Ra (in µM)
# [7] = test system: Candida krusei ATCC 6258, CCM 8271; assay: Antifungal microdilution broth method (EUCAST); type: cell-based; details: Pichia kudriavzevii
# [8] = test system: Candida albicans ATCC 24433, CCM 8320; assay: Antifungal microdilution broth method (EUCAST); type: cell-based
# [9] = test system: Pseudomonas aeruginosa ATCC 27853, CCM 3955; assay: Antibacterial microdilution broth method (EUCAST); type: cell-based; details: read-out: MIC PA
# [10] = test system: Enterococcus faecalis ATCC 29212, CCM 4224; assay: Antibacterial microdilution broth method (EUCAST); type: cell-based; details: read-out: MIC EF
# [11] = test system: Trichophyton interdigitale ATCC 9533, CCM 8377; assay: Antifungal microdilution broth method (EUCAST); type: cell-based; details: read-out: MIC TI
# [12] = test system: Acinetobacter baumanii ATCC 19606, DSM 30007; assay: Antibacterial microdilution broth method (EUCAST); type: cell-based; details: Acinetobacter baumannii
# [13] = test system: Absidia corymbifera CCM 8077 (Lichtheimia corymbifera); assay: Antifungal microdilution broth method (EUCAST); type: cell-based; details: read-out: MIC AC
# [14] = test system: Staphylococcus epidermidis ATCC 12228, CCM 4418; assay: Antibacterial microdilution broth method (EUCAST); type: cell-based; details: read-out: MIC SE
# [15] = test system: Candida parapsilosis ATCC 22019, CCM 8260; assay: Antifungal microdilution broth method (EUCAST); type: cell-based; details: Lodderomyces parapsilosis
# [16] = test system: Escherichia coli ATCC 25922, CCM 3954; assay: Antibacterial microdilution broth method (EUCAST); type: cell-based; details: read-out: MIC EC
# [17] = test system: Staphylococcus aureus spp.aureus ATCC 29213, CCM 4223; assay: Antibacterial microdilution broth method (EUCAST); type: cell-based; details: read-out: MIC SA
# [18] = test system: Aspergillus fumigatus ATCC 204305; assay: Antifungal microdilution broth method (EUCAST); type: cell-based; details: read-out: MIC AF
# [19] = test system: Candida tropicalis ATCC 750, CCM 8264; assay: Antifungal microdilution broth method (EUCAST); type: cell-based; details: read-out: MIC CT
# [20] = test system: Staphylococcus aureus methicillin resistant ATCC 43300, CCM 4750; assay: microbe, parasite or virus in culture; type: cell-based; details: ATCC 43300 / CCM 4750 / MRSA, read-out: MIC MRSA
# [21] = test system: Aspergillus flavus CCM 8363; assay: Antifungal microdilution broth method (EUCAST); type: cell-based; details: read-out: MIC AFla
# [22] = test system: Klebsiella pneumoniae ATCC 10031, CCM 4415; assay: Antibacterial microdilution broth method (EUCAST)
# [23] = in vitro, Middlebrook 7H9 broth, resazurin
# [24] = ATCC15769, Middlebrook 7H9 broth pH 6.6, read-out: MIC Mycobacterium avium
# [25] = ATCC12478, Middlebrook 7H9 broth pH 6.6, read-out: MIC Mycobacterium kansasii
# [26] = HepG2, 24 h incubation, > means higher concentration not reproducible due to precipitation
# [27] = ATCC15769, pH 6.6, read-out: MIC Mycobacterium avium
# [28] = ATCC12478, pH 6.6, read-out: MIC Mycobacterium kansasii
smiles,measurement,setting,value
"O=C(O)c1cn(C2CC2)c2cc(N3CCNCC3)c(F)cc2c1=O [CPX, ciprofloxacin, reference compound]",MIC,[1]; [23],0.0625 to 0.125 µg/mL
same,MIC,Serratia marcescens,0.256 µg/mL
same,MIC,[2]; [23],0.125 to 0.25 µg/mL
same,MIC,[3]; [23],0.0156 to 0.0313 µg/mL
"CCCCCCCCNc1cnc(C(=O)Nc2ccc(O)cc2)cn1 [Compound 3f, N-(4-hydroxyphenyl)-5-(octylamino)pyrazine-2-carboxamide]",MIC,[4]; [24],> 100 µg/mL
same,MIC,[1]; [23],≥ 250 µg/mL
same,MIC,[5]; [25],6.25 µg/mL
same,MIC,[2]; [23],3.13 µg/mL
same,melting point,,142 to 143 °C
same,MIC,[3]; [23],≥ 250 µg/mL
same,Solubility problem in antibacterial/antifungal testing,[6],did not dissolve in DMSO
same,IC50,HepG2 cells; [26],60.2 µM
same,"SI, selectivity index",HepG2 cells,6.6
"CCCCCCNc1cnc(C(=O)Nc2ccc(C)cc2)cn1 [Compound 4d, 5-(Hexylamino)-N-(p-tolyl)pyrazine-2-carboxamide]",MIC,[4]; [27],> 100 µg/mL
same,MIC,[1],≥ 500 µg/mL
same,MIC,[5]; [28],12.5 µg/mL
same,MIC,"[7]; 24 h, read-out: MIC CK",125 µM
same,MIC,"[7]; 48 h, read-out: MIC CK",125 µM
same,MIC,[7]; read-out: MIC CK (Candida krusei),125 µM
same,MIC,"[8]; 24 h, read-out: MIC CA",> 125 µM
same,MIC,"[8]; 48 h, read-out: MIC CA",> 125 µM
same,MIC,[8]; read-out: MIC CA (Candida albicans),> 125 µM
same,MIC,[9]; 72 h,> 500 µM
same,MIC,[9]; 120 h,> 500 µM
same,MIC,[10]; 24 h,> 500 µM
same,MIC,[10]; 48 h,> 500 µM
same,MIC,[11]; 72 h,> 125 µM
same,MIC,[11]; 120 h,> 125 µM
same,MIC,[2]; MIC converted to µM,4.99 µM
same,MIC,[2]; [23],1.56 µg/mL
same,MIC,[12]; 24h,> 500 µM
same,MIC,[12]; 48h,> 500 µM
same,MIC,"[13]; CCM8077, 24 h",> 125 µM
same,MIC,"[13]; CCM8077, 48 h",> 125 µM
same,MIC,[14]; 24 h,> 500 µM
same,MIC,[14]; 48 h,> 500 µM
same,MIC,"[15]; 24 h, read-out: MIC CP",125 µM
same,MIC,"[15]; 48 h, read-out: MIC CP",125 µM
same,MIC,[15]; read-out: MIC CP (Candida parapsilosis),125 µM
same,MIC,[16]; 24 h,> 500 µM
same,MIC,[16]; 48 h,> 500 µM
same,MIC,[17]; 24 h,> 500 µM
same,MIC,[17]; 48 h,> 500 µM
same,MIC,"[18]; ATCC204305, 24 h",> 125 µM
same,MIC,"[18]; ATCC204305, 48 h",> 125 µM
same,MIC,[19]; 24 h,> 125 µM
same,MIC,[19]; 48 h,> 125 µM
same,melting point,,163 to 164 °C
same,MIC,[20]; 24 h,> 500 µM
same,MIC,[20]; 48 h,> 500 µM
same,MIC,"[21]; CCM8363, 24 h",> 125 µM
same,MIC,"[21]; CCM8363, 48 h",> 125 µM
same,MIC KP,[22]; 24h,> 500 µM
same,MIC KP,[22]; 48h,> 500 µM
same,MIC,[3],≥ 500 µg/mL
same,IC50,"HepG2 cells; HepG2, 24 h",> 50 µM
same,"SI, selectivity index",HepG2 cells,>10.01
"CCCCCCCNc1cnc(C(=O)Nc2ccc(C)cc2)cn1 [Compound 4e, 5-(Heptylamino)-N-(p-tolyl)pyrazine-2-carboxamide]",MIC,[4]; [27],> 100 µg/mL
same,MIC,[1],≥ 500 µg/mL
same,MIC,[5]; [28],12.5 µg/mL
same,MIC,"[7]; 24 h, read-out: MIC CK",> 125 µM
same,MIC,"[7]; 48 h, read-out: MIC CK",> 125 µM
same,MIC,"[8]; 24 h, read-out: MIC CA",> 125 µM
same,MIC,"[8]; 48 h, read-out: MIC CA",> 125 µM
same,MIC,[9]; 72 h,> 500 µM
same,MIC,[9]; 120 h,> 500 µM
same,MIC,[10]; 24 h,> 500 µM
same,MIC,[10]; 48 h,> 500 µM
same,MIC,[11]; 72 h,> 125 µM
same,MIC,[11]; 120 h,> 125 µM
same,MIC,[2]; MIC converted to µM,2.39 µM
same,MIC,[2]; [23],0.78 µg/mL
same,MIC,[12]; 24h,> 500 µM
same,MIC,[12]; 48h,> 500 µM
same,MIC,"[13]; CCM8077, 24 h",> 125 µM
same,MIC,"[13]; CCM8077, 48 h",> 125 µM
same,MIC,[14]; 24 h,> 500 µM
same,MIC,[14]; 48 h,> 500 µM
same,MIC,"[15]; 24 h, read-out: MIC CP",> 125 µM
same,MIC,"[15]; 48 h, read-out: MIC CP",> 125 µM
same,MIC,[16]; 24 h,> 500 µM
same,MIC,[16]; 48 h,> 500 µM
same,MIC,[17]; 24 h,> 500 µM
same,MIC,[17]; 48 h,> 500 µM
same,MIC,"[18]; ATCC204305, 24 h",> 125 µM
same,MIC,"[18]; ATCC204305, 48 h",> 125 µM
same,MIC,[19]; 24 h,> 125 µM
same,MIC,[19]; 48 h,> 125 µM
same,melting point,,157.8 to 158.9 °C
same,MIC,[20]; 24 h,> 500 µM
same,MIC,[20]; 48 h,> 500 µM
same,MIC,"[21]; CCM8363, 24 h",> 125 µM
same,MIC,"[21]; CCM8363, 48 h",> 125 µM
same,MIC KP,[22]; 24h,> 500 µM
same,MIC KP,[22]; 48h,> 500 µM
same,MIC,[3],≥ 500 µg/mL
same,IC50,"HepG2 cells; HepG2, 24 h",> 50 µM
same,"SI, selectivity index",HepG2 cells,>20.91
"CCCCCNc1cnc(C(=O)Nc2ccc(Cl)cc2O)cn1 [Compound 6c, N-(4-chloro-2-hydroxyphenyl)-5-(pentylamino)pyrazine-2-carboxamide]",MIC,[4]; [24],> 100 µg/mL
same,MIC,[1]; [23],3.91 µg/mL
same,MIC,[5]; [25],25 µg/mL
same,MIC,[2]; [23],≥ 500 µg/mL
same,melting point,,206.5 to 208.7 °C
same,MIC,[3]; [23],≥ 500 µg/mL
same,Solubility problem in antibacterial/antifungal testing,[6],did not dissolve in DMSO
same,IC50,HepG2 cells; [26],81.1 µM
"CCCCCCNc1cnc(C(=O)Nc2ccc(Cl)cc2O)cn1 [Compound 6d, N-(4-chloro-2-hydroxyphenyl)-5-(hexylamino)pyrazine-2-carboxamide]",MIC,[4]; [24],> 100 µg/mL
same,MIC,[1]; [23],3.91 µg/mL
same,MIC,[5]; [25],25 µg/mL
same,MIC,[2]; [23],3.13 µg/mL
same,melting point,,201.7 to 204.9 °C
same,MIC,[3]; [23],≥ 500 µg/mL
same,Solubility problem in antibacterial/antifungal testing,[6],did not dissolve in DMSO
same,IC50,HepG2 cells; [26],> 50 µM
same,"SI, selectivity index",HepG2 cells,>5.27
"CCCCCCCNc1cnc(C(=O)Nc2ccc(Cl)cc2O)cn1 [Compound 6e, N-(4-chloro-2-hydroxyphenyl)-5-(heptylamino)pyrazine-2-carboxamide]",MIC,[4]; [24],> 100 µg/mL
same,MIC,[1]; [23],≥ 500 µg/mL
same,MIC,[5]; [25],25 µg/mL
same,MIC,[2]; [23],≥ 500 µg/mL
same,melting point,,199.8 to 200.8 °C
same,MIC,[3]; [23],≥ 500 µg/mL
same,Solubility problem in antibacterial/antifungal testing,[6],did not dissolve in DMSO
same,IC50,HepG2 cells; [26],> 25 µM
